The values below come from publication PMC11489721 (Communications Chemistry, 2024).

pEC50, pKd, pKi: −log10 of the molar value.

In assay [1] the target is T1, heterodimeric receptor (T1R2/T1R3), TMD2 binding site (Homo sapiens, UniProt Q7RTX0+Q8TE23).
T1 sequence (Q8TE23 20-839): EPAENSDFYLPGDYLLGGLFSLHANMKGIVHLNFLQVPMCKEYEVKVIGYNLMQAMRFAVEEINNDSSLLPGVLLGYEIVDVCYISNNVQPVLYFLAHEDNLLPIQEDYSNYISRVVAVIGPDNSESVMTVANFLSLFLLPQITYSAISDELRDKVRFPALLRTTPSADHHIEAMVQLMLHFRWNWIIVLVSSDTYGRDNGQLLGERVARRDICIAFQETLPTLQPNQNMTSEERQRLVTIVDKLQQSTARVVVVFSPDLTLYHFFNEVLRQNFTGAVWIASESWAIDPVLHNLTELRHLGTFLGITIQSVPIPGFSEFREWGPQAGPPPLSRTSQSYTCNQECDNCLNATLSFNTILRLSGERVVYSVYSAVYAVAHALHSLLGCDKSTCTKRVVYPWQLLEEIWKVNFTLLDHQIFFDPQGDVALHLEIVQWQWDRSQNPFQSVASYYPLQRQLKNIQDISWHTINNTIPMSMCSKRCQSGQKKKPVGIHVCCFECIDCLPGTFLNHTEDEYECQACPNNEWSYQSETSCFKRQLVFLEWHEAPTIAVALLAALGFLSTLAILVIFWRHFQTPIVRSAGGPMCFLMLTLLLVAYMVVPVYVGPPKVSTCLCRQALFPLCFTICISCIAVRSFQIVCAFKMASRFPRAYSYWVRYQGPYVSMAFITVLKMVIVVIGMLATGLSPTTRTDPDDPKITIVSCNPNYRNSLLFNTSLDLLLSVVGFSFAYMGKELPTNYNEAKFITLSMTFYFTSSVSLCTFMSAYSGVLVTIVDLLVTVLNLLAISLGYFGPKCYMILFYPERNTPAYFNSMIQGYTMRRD
T1 sequence (Q7RTX0 21-852): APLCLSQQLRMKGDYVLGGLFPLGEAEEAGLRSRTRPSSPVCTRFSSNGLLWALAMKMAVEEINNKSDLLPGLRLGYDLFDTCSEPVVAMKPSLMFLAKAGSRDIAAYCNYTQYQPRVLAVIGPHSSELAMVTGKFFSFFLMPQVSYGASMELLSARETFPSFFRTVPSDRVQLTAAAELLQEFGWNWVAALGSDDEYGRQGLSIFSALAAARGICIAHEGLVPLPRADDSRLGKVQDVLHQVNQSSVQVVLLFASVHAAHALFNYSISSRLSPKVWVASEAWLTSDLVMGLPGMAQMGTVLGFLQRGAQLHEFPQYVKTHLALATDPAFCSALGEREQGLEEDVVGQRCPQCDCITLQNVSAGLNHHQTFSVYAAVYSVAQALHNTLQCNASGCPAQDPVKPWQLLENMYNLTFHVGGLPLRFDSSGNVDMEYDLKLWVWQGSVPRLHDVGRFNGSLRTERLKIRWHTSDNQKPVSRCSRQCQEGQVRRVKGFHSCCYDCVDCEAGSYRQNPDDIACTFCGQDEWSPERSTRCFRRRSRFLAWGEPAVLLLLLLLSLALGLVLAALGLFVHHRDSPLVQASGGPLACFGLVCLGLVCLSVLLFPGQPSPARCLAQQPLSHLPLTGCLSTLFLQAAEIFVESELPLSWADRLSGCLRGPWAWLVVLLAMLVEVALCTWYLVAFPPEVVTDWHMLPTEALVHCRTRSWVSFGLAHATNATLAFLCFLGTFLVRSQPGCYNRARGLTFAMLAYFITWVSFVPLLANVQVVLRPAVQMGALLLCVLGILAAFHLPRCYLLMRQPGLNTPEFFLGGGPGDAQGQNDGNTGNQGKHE
Nature of the assay: Competition binding with [3H]-Perillartine as radioligand. The conditions noted are these: radioligand [3H]-Perillartine.

Assay [2] has as its system human T1R2/T1R3 heterodimers. The conditions noted are these: transiently transfected, fluorescent calcium biosensor; cited from earlier work.
In assay [3] the target is extracellular amino-terminal domain (ATD) of human T1R2. The conditions noted are these: circular dichroism; cited from earlier work. In general terms: Circular dichroism is the unequal absorption of left and right circularly polarised light.
In assay [4] the target is T2, heterodimeric receptor (T1R2/T1R3), presumed VFD2 binding site (Homo sapiens, UniProt Q7RTX0+Q8TE23).
T2 sequence (Q8TE23 20-839): T1 sequence (Q8TE23 20-839)
T2 sequence (Q7RTX0 21-852): T1 sequence (Q7RTX0 21-852)
Nature of the assay: Competition binding with [3H]-Rebaudioside B as radioligand. The conditions noted are these: for Competitive inhibition with RebB: radioligand [3H]-Rebaudioside B.

The target in the next assay is human T1R2. The conditions noted are these: human T1R2, intrinsic fluorescence; cited from earlier work.
Assay [5] has as its target human T1R2/T1R3 sweet taste receptor. The conditions noted are these: HEK293 stably expressing T1R2/T1R3, FLIPR calcium mobilization; cited from earlier work.
Assay [6] concerns the target T3, heterodimeric receptor (T1R2/T1R3), TMD3 binding site (Homo sapiens, UniProt Q7RTX0+Q8TE23).
T3 sequence (Q8TE23 20-839): T1 sequence (Q8TE23 20-839)
T3 sequence (Q7RTX0 21-852): T1 sequence (Q7RTX0 21-852)
Nature of the assay: Competition binding with [3H]-lactisole as radioligand. The conditions noted are these: for Competitive inhibition with lactisole: radioligand [3H]-lactisole.

The target in assay [7] is T4, heterodimeric receptor (T1R2/T1R3) (Homo sapiens, UniProt Q7RTX0+Q8TE23).
T4 sequence (Q8TE23 20-839): T1 sequence (Q8TE23 20-839)
T4 sequence (Q7RTX0 21-852): T1 sequence (Q7RTX0 21-852)
Nature of the assay: Competition binding with [14C]-sucrose as radioligand.

Turning to `CC1=CC(=O)NS(=O)(=O)O1` [AceK, Acesulfame K], the “Competitive inhibition with perillartine” value in assay [1] is listed as “high levels of inhibition”. Also, the pEC50 – broadly, the negative decadic logarithm of the EC50, by convention in mol/L – is 3.67 in assay [2] and 3.90 in assay [5]. Further, the negative-log Kd (pKd) – broadly, the negative decadic logarithm of the Kd, by convention in mol/L – was 4.00 in assay [3] and 3.79 on human T1R2. Besides, in assay [4], the “Competitive inhibition with RebB” value is “inhibited”. The “Competitive inhibition with lactisole” value in assay [6] is given as “do not compete”.
Take `COc1ccc(CCC(=O)c2c(O)cc(O[C@@H]3O[C@H](CO)[C@@H](O)[C@H](O)[C@H]3O[C@@H]3O[C@@H](C)[C@H](O)[C@@H](O)[C@H]3O)cc2O)cc1O` [NHDC, Neohesperidin Dihydrochalcone]: in assay [1], the “Competitive inhibition with perillartine” value was “high levels of inhibition”. For the same molecule, the pKi (as a rule, the Ki on a negative log10 scale, so that one unit is a factor of ten) in assay [4] was 1.20; in assay [6] (Ki, radiolabeled ligand lactisole), 3.48; in assay [7] it was 1.87. Moreover, the “Competitive inhibition with RebB” value in assay [4] is “positive inhibition”. In assay [5], the pEC50 is 4.99. Besides, the inhibition constant (Ki) – broadly, the dissociation constant of the complex between target and ligand, obtained from inhibition or displacement – in assay [6] (Ki (mM), radiolabeled ligand lactisole, TMD3 binding, Table 4) turned out to be 0.33 mM. Moreover, in assay [6], the “Competitive inhibition with lactisole” value was “inhibition”.
